How the values were obtained:
[1] = Phase 1 dose-escalation: tolerability and safety (DLTs, adverse events, CTCAE v4.0); assay type: in vivo
Method: This was a non-randomized, single-arm, open-label, Phase 1, dose-escalation study of oral LY3023414 in Japanese patients with advanced malignancies. A modified 3 + 3 dose-escalation method was used to evaluate the dose-limiting toxicity (DLT) of LY3023414. Enrollment of 3 patients and 6 patients were planned for dose level 1 (150 mg) and dose level 2 (200 mg), respectively. Dose-escalation decisions were made by agreement between investigators and the sponsor, with a consultation with the Safety Assessment Committee (SAC), as needed. If 2 patients experienced DLTs at any given dose, the sponsor examined safety data and consulted the SAC. Following consultation, the sponsor and investigators decided whether the dose was intolerable or additional patients were to be enrolled to the same or an intermediate dose level for further investigation. If ≥3 patients experienced DLTs at any given dose, the dose was considered intolerable for Japanese patients. No intrapatient dose escalation was allowed.
The study evaluated 2 dose levels, 150 mg or 200 mg LY3023414 monotherapy administered in the morning and evening, approximately 12 h apart. The cycle was of 21 days. […] No dose reductions were allowed during Cycle 1, unless a DLT was reported. Dose reductions were allowed in Cycle 2 and beyond at the discretion of the investigator. Patients were treated until a discontinuation criterion was met.
Tolerability and safety were assessed through clinical and laboratory evaluations at weekly intervals for the first 2 cycles and at least every 2 weeks thereafter. Adverse events (AEs) were graded according to the Common Terminology Criteria for Adverse Events Version 4.0 and coded to Medical Dictionary for Regulatory Activities preferred terms. All patients who received ≥1 dose of the study drug were included in the safety analysis.
A DLT was defined as any AE during Cycle 1 which was possibly related to study treatment with LY3023414 and fulfilled any of the following main criteria: Grade ≥ 3 non-hematological toxicity (except nausea, vomiting, diarrhea, constipation, anorexia, skin rash, or asymptomatic electrolyte abnormality for ≤3 days and responsive to appropriate treatment; transient ≤5 days hyperglycemia; and transient ≤7 days mucositis), Grade 4 hematological toxicity of ≥7 days, Grade 3 thrombocytopenia with Grade ≥ 2 bleeding or febrile neutropenia, requirement of platelet or packed red blood transfusion, and any toxicities requiring dose omissions of >20% of intended doses in Cycle 1. The maximum tolerated dose was defined as the highest dose of LY3023414 not causing a DLT in more than 33% of patients.

[2] = test system: PI3K/mTOR kinase activity; test: Pharmacodynamics: fasting glucose and C-peptide change from baseline; assay type: in vivo, human; conditions: baseline to 4 h post dose
Method: The primary objective of this study was to evaluate the tolerability and safety of LY3023414 up to the global recommended dose in Japanese patients with advanced malignancies. The secondary objectives were to evaluate PK and to document antitumor activity of LY3023414. The exploratory objective was to evaluate pharmacodynamic (PD) effects of LY3023414 on PI3K/mTOR kinase activity.
For PK assessment, blood samples were collected at pre dose and 0.5, 1, 2, 4, 8, and 12 h post dose on 2 occasions: (i) on Day 1 of Cycle 1 (single dose), and (ii) on Day 15 of Cycle 1 (multiple dose). For PD assessment, blood samples were collected at pre dose and 0.5, 1, 2, and 4 h post dose on 2 occasions: (i) on Day 1 of Cycle 1 (single dose), and (ii) on Day 15 of Cycle 1 (multiple dose).
Pharmacodynamic parameters (glucose and C-peptide) were analyzed for all patients. The mean percentage change from baseline against nominal time was provided for glucose and C-peptide.

PI3K/mTOR = test system: PI3K/mTOR; set-up: method as in PMID 29636360; conditions: at doses ≥150 mg; cited from earlier work
CYP3A4 = test system: CYP3A4; set-up: method as in PMID 29636360; conditions: drug-drug interaction analysis; cited from earlier work
[3] = set-up: method as in PMID 29636360; conditions: across a wide pH range; cited from earlier work
[4] = test system: PI3K/AKT/mTOR downstream pathway; set-up: method as in PMID 27439478; conditions: in vitro; cited from earlier work
[5] = cited from earlier work

CO[C@@H](C)Cn1c(=O)n(C)c2cnc3ccc(-c4cncc(C(C)(C)O)c4)cc3c21 [LY3023414]
Maximum tolerated dose ([1]; BID dosing, Japanese patients): 200 mg
Fatal events ([1]; due to AEs or any other reason): no fatal events
ALT increased, AE possibly related to study drug ([1]; human, in vivo): 3 (25.0) n (%)
AST increased, AE possibly related to study drug ([1]; human, in vivo): 3 (25.0) n (%)
Anemia, AE possibly related to study drug ([1]; human, in vivo): 5 (41.7) n (%)
Appetite decreased, AE possibly related to study drug ([1]; human, in vivo): 7 (58.3) n (%)
Blood creatinine increased, AE possibly related to study drug ([1]; human, in vivo): 4 (33.3) n (%)
Diarrhea, AE possibly related to study drug ([1]; human, in vivo): 5 (41.7) n (%)
Drug-related Grade 4 or 5 AEs ([1]; human, in vivo): No drug-related Grade 4 or 5 AEs
Fatigue, AE possibly related to study drug ([1]; human, in vivo): 4 (33.3) n (%)
Hyperglycemia, AE possibly related to study drug ([1]; human, in vivo): 4 (33.3) n (%)
Hypokalemia, AE possibly related to study drug ([1]; human, in vivo): 2 (16.7) n (%)
Hypophosphatemia, AE possibly related to study drug ([1]; human, in vivo): 4 (33.3) n (%)
Hypotension, AE possibly related to study drug ([1]; human, in vivo): 2 (16.7) n (%)
Nausea, AE possibly related to study drug ([1]; human, in vivo): 8 (66.7) n (%)
Patients with at least 1 dose adjustment ([1]; human, in vivo): 33.3%
Patients with serious AEs ([1]; human, in vivo): 3 patients
Platelet count decreased, hematological AE possibly related to study drug ([1]; human, in vivo): 5 (41.7) n (%)
Proteinuria, AE possibly related to study drug ([1]; human, in vivo): 4 (33.3) n (%)
Pruritis, AE possibly related to study drug ([1]; human, in vivo): 3 (25.0) n (%)
Pyrexia, AE possibly related to study drug ([1]; human, in vivo): 2 (16.7) n (%)
Rash, AE possibly related to study drug ([1]; human, in vivo): 3 (25.0) n (%)
Stomatitis, AE possibly related to study drug ([1]; human, in vivo): 9 (75.0) n (%)
Vomiting, AE possibly related to study drug ([1]; human, in vivo): 4 (33.3) n (%)
WBC count decreased, hematological AE possibly related to study drug ([1]; human, in vivo): 2 (16.7) n (%)
Weight decreased, AE possibly related to study drug ([1]; human, in vivo): 2 (16.7) n (%)
anemia, related AE Grade ≥ 3, patients ([1]; human, in vivo): 16.7%
anemia, treatment-related AE, patients ([1]; human, in vivo): 41.7%
decreased appetite, treatment-related AE, patients ([1]; human, in vivo): 58.3%
decreased platelet count, treatment-related AE, patients ([1]; human, in vivo): 41.7%
decreased weight, treatment-related AE, patients ([1]; human, in vivo): 16.7%
decreased white blood cell count, treatment-related AE, patients ([1]; human, in vivo): 16.7%
diarrhea, treatment-related AE, patients ([1]; human, in vivo): 41.7%
fatigue, treatment-related AE, patients ([1]; human, in vivo): 33.3%
hyperglycemia, related AE Grade ≥ 3, patients ([1]; human, in vivo): 16.7%
hyperglycemia, treatment-related AE, patients ([1]; human, in vivo): 33.3%
hypokalemia, treatment-related AE, patients ([1]; human, in vivo): 16.7%
hypophosphatemia, related AE Grade ≥ 3, patients ([1]; human, in vivo): 16.7%
hypophosphatemia, treatment-related AE, patients ([1]; human, in vivo): 33.3%
hypotension, treatment-related AE, patients ([1]; human, in vivo): 16.7%
increased alanine aminotransferase, treatment-related AE, patients ([1]; human, in vivo): 25.0%
increased aspartate aminotransferase, treatment-related AE, patients ([1]; human, in vivo): 25.0%
increased blood creatinine, treatment-related AE, patients ([1]; human, in vivo): 33.3%
nausea, treatment-related AE, patients ([1]; human, in vivo): 66.7%
proteinuria, treatment-related AE, patients ([1]; human, in vivo): 33.3%
pruritus, treatment-related AE, patients ([1]; human, in vivo): 25.0%
pyrexia, treatment-related AE, patients ([1]; human, in vivo): 16.7%
rash, treatment-related AE, patients ([1]; human, in vivo): 25.0%
stomatitis, related AE Grade ≥ 3, patients ([1]; human, in vivo): 16.7%
stomatitis, treatment-related AE, patients ([1]; human, in vivo): 75.0%
vomiting, treatment-related AE, patients ([1]; human, in vivo): 33.3%
Dose-limiting toxicities (DLTs) ([1]; in vivo): No DLTs
Patients with at least 1 AE considered possibly related to the study drug ([1]; in vivo): All patients
C-peptide, mean percentage change from baseline ([2]; 150 mg): 106.0%
Glucose, mean percentage change from baseline ([2]; 150 mg): 23.6%
C-peptide, mean percentage change from baseline ([2]; 200 mg): 165.4%
Glucose, mean percentage change from baseline ([2]; 200 mg): 24.7%
Target inhibition (PI3K/mTOR): ≥ 90%
Inhibition of the metabolic clearance of drugs metabolized through CYP3A4 (CYP3A4): weak inhibitor
Solubility [3]: good solubility
Inhibition of phosphorylation of the PI3K/AKT/mTOR downstream pathway [4]: dose-dependent inhibition
Frequency of stomatitis ([5]; 200-mg dose, global study): 33.3%
Disease control rate ([5]; global Phase 1 study): 34.0%
Interstitial lung disease (ILD) ([5]; global study): None of the patients experienced ILD
Safe and tolerable dose as monotherapy (global recommended dose) ([5]; human, in vivo): up to 200 mg

Reference: paper PMC7575488, “Phase 1 dose-escalation study of a novel oral PI3K/mTOR dual inhibitor, LY3023414, in patients with cancer” (Investigational New Drugs, 2020)
